Experimental data taken from patent US4382089A, “Antibacterial amide compounds, compositions thereof and methods of using them” (Warner-Lambert Company, priority 1982, dated 1983).

Tests used:
Test in all cases: Antibacterial activity in vitro, Minimal Inhibitory Concentration
Assay type in all cases: cell-based
[1] = test system: Staph Aureus UC-76
Description: (§1) The compounds of the invention are new chemical compounds that are used as pharmacological agents and especially as broad spectrum antibacterial agents. They are active in vitro against strains of both gram-positive and gram-negative bacteria. The activity of the compounds is illustrated by the results shown in the table for certain of the preferred compounds.

[2] = test system: Prot. Vulg. 1810
Description: as §1

[3] = test system: Pseudo. Aeru BRK
Description: as §1

[4] = test system: Pseudo. Aeru UI-18
Description: as §1

[5] = test system: Klebs. Pneu. MGH-2
Description: as §1

[6] = test system: Entero C. IMM-11
Description: as §1

[7] = test system: Serr. Mar. IMM-16
Description: as §1

[8] = test system: E. Coli Vogel
Description: as §1

[9] = test system: E. Coli Brig
Description: as §1

[10] = test system: Pseudo. Aeru 28
Description: as §1

Molecule	Minimal Inhibitory Concentration [1]	Minimal Inhibitory Concentration [2]	Minimal Inhibitory Concentration [3]	Minimal Inhibitory Concentration [4]	Minimal Inhibitory Concentration [5]	Minimal Inhibitory Concentration [6]	Minimal Inhibitory Concentration [7]	Minimal Inhibitory Concentration [8]	Minimal Inhibitory Concentration [9]	Minimal Inhibitory Concentration [10]
CC(=O)NC(C)C(=O)Nc1ccc2[nH]cc(C(=O)NC(C(=O)NC3C(=O)N4C3SC(C)(C)C4C(=O)O)c3ccc(O)cc3)c(=O)c2c1 (stereo not drawn) [N-[6-[[2-(Acetylamino)-1-oxopropyl]amino]-1,4-dihydro-4-oxo-3-quinolinylcarbonyl]amoxicillin]	1.6 µg/mL	0.8 µg/mL	1.6 µg/mL	1.6 µg/mL	6.3 µg/mL	3.1 µg/mL	3.1 µg/mL	0.4 µg/mL	3.1 µg/mL	0.4 µg/mL
CC(=O)N1CCCC1C(=O)Nc1ccc2[nH]c(=O)c(C(=O)NC(C(=O)NC3C(=O)N4C3SC(C)(C)C4C(=O)O)c3ccc(O)cc3)cc2c1 (stereo not drawn) [N-[6-[[(1-Acetyl-2-pyrrolidinyl)carbonyl]amino]-1,2-dihydro-2-oxo-3-quinolinylcarbonyl]amoxicillin]	0.8 µg/mL	0.8 µg/mL	1.6 µg/mL	1.6 µg/mL	25 µg/mL	3.1 µg/mL	12.5 µg/mL	0.2 µg/mL	3.1 µg/mL	1.6 µg/mL
CC(=O)N1CCCC1C(=O)Nc1ccc2[nH]cc(C(=O)NC(C(=O)NC3C(=O)N4C3SC(C)(C)C4C(=O)O)c3ccc(O)cc3)c(=O)c2c1 (stereo not drawn) [N-[6-[[(1-Acetyl-2-pyrrolidinyl)carbonyl]amino]-1,4-dihydro-4-oxo-3-quinolinylcarbonyl]amoxicillin]	3.1 µg/mL	0.8 µg/mL	3.1 µg/mL	3.1 µg/mL	6.3 µg/mL	6.3 µg/mL	6.3 µg/mL	0.2 µg/mL	6.3 µg/mL	3.1 µg/mL
CC(=O)NC(C)C(=O)Nc1ccc2[nH]c(=O)c(C(=O)NC(C(=O)NC3C(=O)N4C3SC(C)(C)C4C(=O)O)c3ccc(O)cc3)cc2c1 (stereo not drawn) [N-[6-[[(2-Acetylamino)-1-oxopropyl]amino]-1,2-dihydro-2-oxo-3-quinolinylcarbonyl]amoxicillin]	1.6 µg/mL	3.1 µg/mL	1.6 µg/mL	1.6 µg/mL	12.5 µg/mL	6.3 µg/mL	12.5 µg/mL	1.6 µg/mL	6.3 µg/mL	1.6 µg/mL
CC(=O)N1CC(O)CC1C(=O)Nc1ccc2c(=O)c(C(=O)NC(C(=O)NC3C(=O)N4C3SC(C)(C)C4C(=O)O)c3ccc(O)cc3)c[nH]c2c1 (stereo not drawn) [N-[7-[[(1-Acetyl-4-hydroxy-2-pyrrolidinyl)carbonyl]-amino]-1,4-dihydro-4-oxo-3-quinolinecarbonyl]amoxicillin]	1.6 µg/mL	0.8 µg/mL	3.1 µg/mL	3.1 µg/mL	12.5 µg/mL	6.3 µg/mL	6.3 µg/mL	3.1 µg/mL	12.5 µg/mL	3.1 µg/mL
CC1(C)S[C@@H]2[C@H](NC(=O)[C@H](NC(=O)c3cc4cc(NC(=O)NCC(N)=O)ccc4[nH]c3=O)c3ccc(O)cc3)C(=O)N2[C@H]1C(=O)O [N-[3-[1,2-dihydro-2-oxo-6-(5-oxo-2-pyrrolidinyl)amino]-quinolinylcarbonyl]amoxicillin]	1.6 µg/mL		1.6 µg/mL			3.1 µg/mL				1.6 µg/mL
CC(=O)N1CC(O)CC1C(=O)Nc1ccc2[nH]c(=O)c(C(=O)NC(C(=O)NC3C(=O)N4C3SC(C)(C)C4C(=O)O)c3ccc(O)cc3)cc2c1 (stereo not drawn) [N-[6-[[(1-Acetyl-4-hydroxy-2-pyrrolidinyl)carbonyl]-amino]-1,2-dihydro-2-oxo-3-quinolinylcarbonyl]amoxicillin]	0.8 µg/mL	3.1 µg/mL	3.1 µg/mL	1.6 µg/mL	25 µg/mL	6.3 µg/mL	25 µg/mL	6.3 µg/mL	12.5 µg/mL	1.6 µg/mL
CC1(C)SC2C(NC(=O)C(NC(=O)c3c[nH]c4c(NC(=O)C5CCC(=O)N5)cccc4c3=O)c3ccc(O)cc3)C(=O)N2C1C(=O)O (stereo not drawn) [N-[1,4-Dihydro-4-oxo-8-[[(5-oxo-2-pyrrolidinyl)carbonyl]-amino]-3-quinolinylcarbonyl]amoxicillin]	1.6 µg/mL	3.1 µg/mL	1.6 µg/mL	3.1 µg/mL	12.5 µg/mL	6.3 µg/mL	12.5 µg/mL	3.1 µg/mL	6.3 µg/mL	0.8 µg/mL
CC(=O)NC(C)C(=O)Nc1ccc2c(=O)c(C(=O)NC(C(=O)NC3C(=O)N4C3SC(C)(C)C4C(=O)O)c3ccc(O)cc3)c[nH]c2c1 (stereo not drawn) [N-[7-[[2-(Acetylamino)-1-oxopropyl]amino]-1,4-dihydro-4-oxo-3-quinolinylcarbonyl]amoxicillin]	0.8 µg/mL	0.8 µg/mL	1.6 µg/mL	.6 µg/mL	6.3 µg/mL	3.1 µg/mL	6.3 µg/mL	0.2 µg/mL	3.1 µg/mL	1.6 µg/mL
N-[1,4-Dihydro-4-oxo-7-[[(5-oxo-2-pyrrolidinyl)carbonyl]-amino]-3-quinolinylcarbonyl]amoxicillin	0.8 µg/mL	0.8 µg/mL	0.4 µg/mL	3.1 µg/mL	3.1 µg/mL	3.1 µg/mL	1.6 µg/mL	0.4 µg/mL	3.1 µg/mL	0.8 µg/mL
N-[(-[[2-(Acetylamino)-1-oxopropl]amino]-1,4-dihydro-4-oxo-3-quinolinylcarbonyl]amoxicillin	1.6 µg/mL	3.1 µg/mL	3.1 µg/mL	.1 µg/mL	12.5 µg/mL	12.5 µg/mL	12.5 µg/mL	3.1 µg/mL	12.5 µg/mL	0.8 µg/mL
CC1(C)SC2C(NC(=O)C(NC(=O)c3c[nH]c4ccc(NC(=O)C5CCC(=O)N5)cc4c3=O)c3ccc(O)cc3)C(=O)N2C1C(=O)O (stereo not drawn) [N-[1,4-Dihydro-4-oxo-6[[(5-oxo-2-pyrrolidinyl)carbonyl]-amino]-3-quinolinylcarbonyl]amoxicillin]	1.6 µg/mL	1.6 µg/mL	3.1 µg/mL	1.6 µg/mL	12.5 µg/mL	3.1 µg/mL	6.3 µg/mL	1.6 µg/mL	6.3 µg/mL	3.1 µg/mL
